The values below come from paper PMC11117721, “A Fast-Binding, Functionally Reversible, COX-2 Radiotracer for CNS PET Imaging” (ACS Central Science, 2024).

In series [1] the test system is COX-2. Also noted: method as in earlier work. To be noted: human brain PET; cited from earlier work.
The nature of series [2]: Brain protein binding (fraction unbound in brain, Fub). Format: in vitro ADME. An excerpt: (§1) To select the best starting point for COX-2 radiotracer development, we extensively profiled a large set of known COX-2 selective inhibitors. Our primary focus was to identify a ligand with high binding affinity, COX-2 selectivity over COX-1, fast on-rate binding kinetics and improved free fraction in plasma to maximize the signal-to-noise ratio in PET imaging experiments. […] To anticipate fast washout pharmacokinetics in vivo, we utilized simple plasma and brain protein binding assays to maximize the unbound fraction.

The nature of another series: Permeability (Papp). Format: in vitro ADME. The note with it: not told.
A short description of series [3]: Plasma protein binding (fraction unbound in plasma, Fup). Format: in vitro ADME, mouse. The note with it: for Fup: as fraction, plasma protein binding; for Fup (mouse, %): mouse plasma.
Text: as §1

Series [4] in a line: Aqueous solubility in PBS. Format: physicochemical. To be noted: aqueous buffer, read-out: Aq. Sol. (PBS).
Another series concerns the target P-gp (Homo sapiens, UniProt P08183). As to the kind of experiment: Efflux ratio (ER) / P-gp efflux. To be noted: for ER: efflux ratio. Format: in vitro ADME.
Series [5] concerns the target T1, COX-2 (Homo sapiens, UniProt P35354).
T1 sequence (P35354 18-604): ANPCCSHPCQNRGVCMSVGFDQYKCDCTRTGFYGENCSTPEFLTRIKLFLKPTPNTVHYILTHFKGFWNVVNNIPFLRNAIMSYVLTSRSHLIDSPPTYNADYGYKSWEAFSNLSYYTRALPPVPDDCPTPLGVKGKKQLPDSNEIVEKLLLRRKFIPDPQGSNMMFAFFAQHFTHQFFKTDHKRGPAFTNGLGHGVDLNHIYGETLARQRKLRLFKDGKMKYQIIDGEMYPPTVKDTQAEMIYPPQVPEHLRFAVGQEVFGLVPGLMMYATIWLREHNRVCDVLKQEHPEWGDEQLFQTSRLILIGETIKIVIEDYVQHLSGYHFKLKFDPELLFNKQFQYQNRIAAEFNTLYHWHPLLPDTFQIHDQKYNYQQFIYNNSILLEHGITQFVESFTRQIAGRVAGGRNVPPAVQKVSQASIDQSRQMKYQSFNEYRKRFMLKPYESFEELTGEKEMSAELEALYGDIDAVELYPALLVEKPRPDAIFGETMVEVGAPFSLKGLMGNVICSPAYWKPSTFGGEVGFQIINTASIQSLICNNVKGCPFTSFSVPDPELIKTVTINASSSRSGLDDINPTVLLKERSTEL
Kind of series: Lipophilic ligand efficiency (LLE).

In series [6] the target is T1, COX-2. As to the kind of experiment: LCMS-based biochemical COX-2 assay (arachidonic acid to PGE2), short 2 min enzyme-inhibitor incubation. To be noted: COX2 IC50 (nM, 2 min), LCMS readout. An excerpt: To anticipate fast washout pharmacokinetics in vivo, we utilized simple plasma and brain protein binding assays to maximize the unbound fraction. […] Previous COX-2 discovery relied on whole blood assays to measure COX-2 inhibition. Focusing on fast-binding inhibitors, we prioritized SAR derived from a rapid inhibition LCMS-based enzymatic assay.

The structures appear in SMILES notation. ≈ marks a conversion by molar mass, not a printed value. Where “and” joins values, the source holds several entries; their conditions need not be identical. Equal entries are not always repeated.

Chain of P-gp (P08183 whole entry): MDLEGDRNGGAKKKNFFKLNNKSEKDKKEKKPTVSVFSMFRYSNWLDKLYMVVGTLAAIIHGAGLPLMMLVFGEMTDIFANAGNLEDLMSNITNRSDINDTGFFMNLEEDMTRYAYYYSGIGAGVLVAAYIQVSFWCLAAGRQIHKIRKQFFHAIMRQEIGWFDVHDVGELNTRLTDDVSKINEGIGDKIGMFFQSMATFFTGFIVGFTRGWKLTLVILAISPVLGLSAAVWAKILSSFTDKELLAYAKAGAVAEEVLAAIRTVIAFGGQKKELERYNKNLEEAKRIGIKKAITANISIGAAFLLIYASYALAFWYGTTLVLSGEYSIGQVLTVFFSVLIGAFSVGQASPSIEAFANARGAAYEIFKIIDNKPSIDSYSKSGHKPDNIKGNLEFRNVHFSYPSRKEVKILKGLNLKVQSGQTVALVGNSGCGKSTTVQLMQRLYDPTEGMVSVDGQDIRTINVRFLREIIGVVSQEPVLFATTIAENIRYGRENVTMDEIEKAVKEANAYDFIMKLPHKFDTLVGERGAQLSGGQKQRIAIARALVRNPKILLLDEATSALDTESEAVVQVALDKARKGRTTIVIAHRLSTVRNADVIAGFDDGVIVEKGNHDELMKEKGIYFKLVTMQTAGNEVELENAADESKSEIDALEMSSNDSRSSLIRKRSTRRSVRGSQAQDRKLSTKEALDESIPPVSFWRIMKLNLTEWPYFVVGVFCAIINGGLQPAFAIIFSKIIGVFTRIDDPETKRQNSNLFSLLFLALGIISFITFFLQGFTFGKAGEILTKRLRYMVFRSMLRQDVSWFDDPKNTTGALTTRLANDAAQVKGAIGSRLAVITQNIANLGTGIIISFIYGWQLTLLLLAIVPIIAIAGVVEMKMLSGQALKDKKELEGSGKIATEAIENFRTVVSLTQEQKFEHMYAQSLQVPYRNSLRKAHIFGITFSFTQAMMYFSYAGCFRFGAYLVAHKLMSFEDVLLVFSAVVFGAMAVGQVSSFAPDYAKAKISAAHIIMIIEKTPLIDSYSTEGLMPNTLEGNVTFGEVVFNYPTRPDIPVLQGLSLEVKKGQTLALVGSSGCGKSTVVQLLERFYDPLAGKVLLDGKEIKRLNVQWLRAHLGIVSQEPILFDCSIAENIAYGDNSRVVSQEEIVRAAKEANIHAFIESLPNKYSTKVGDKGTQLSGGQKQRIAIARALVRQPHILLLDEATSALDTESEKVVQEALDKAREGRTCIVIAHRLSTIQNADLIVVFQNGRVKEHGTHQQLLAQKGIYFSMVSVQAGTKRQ

Turning to `CS(=O)(=O)c1ccc(-c2nc(NCc3cccs3)cc(O[11CH3])n2)cc1` [[^11C]MC1], the “specific binding of the tracer (of the total uptake)” value with COX-2 [1] is recorded as 10%–20%.
With `COc1cc(NCc2cccs2)nc(-c2ccc(S(C)(=O)=O)cc2)n1` [MC1, reference compound], in series [2], the “Fub (mouse, %)” value was 0.75%. Also, the Papp in the series “Permeability (Papp)” worked out at 36.5 ×10⁻⁶ cm/s. Further, in series [3], the Fup was 0.024 and the “Fup (mouse, %)” value worked out at 2.4%. For the same compound, the solubility in series [4] was 3.4 µM (≈ 1.28 µg/mL).
For the compound `CS(=O)(=O)c1ccc(-c2cccc(NCc3ccoc3)n2)cc1` [BRD1158], the “Fub (mouse, %)” value in series [2] is reported as 2.2%. For the same compound, the Papp in “Permeability (Papp)” is 50.8 ×10⁻⁶ cm/s. Further, the “fold improvement in plasma protein binding (PPB)” value in series [3] (BRD1158 compared to MC1) came out at 4 fold. In series [3], the Fup stood at 0.091 and the “Fup (mouse, %)” value is 9.1%. Besides, the ER on P-gp stood at 0.9. Further, the P-gp efflux result on P-gp (result in words) was “no P-gp efflux”. Further, the LLE on COX-2 [5] amounted to 4.78. Also, the IC50 against COX-2 [6] is 24.6 nM and 25 nM.
As to `CS(=O)(=O)c1ccc(-c2cccc(OCc3cccs3)n2)cc1` [BRD2369], the “Fub (mouse, %)” value in series [2] stood at 0%. In addition, the Papp in “Permeability (Papp)” is 33.7 ×10⁻⁶ cm/s. In series [3], the “Fup (mouse, %)” value is given as 0.4%. In addition, at P-gp, the ER worked out at 0.9. Besides, the LLE on COX-2 [5] is recorded as 4.8. Also, the IC50 against COX-2 [6] is 3.4 nM and 3 nM.

As usually defined, the Papp is the rate of passage across a membrane or cell layer, normalised by area and donor concentration. As a reminder, the IC50 is the concentration at which inhibition is half-maximal. A lower IC50 goes with higher potency.
